Reference: the CheMixHub viscosity set

Experiment: xn = mol fraction of the nth substance listed
Details: 101 kPa

CCCCOC(=O)c1ccccc1 + CCCCCCCC
Details | viscosity [mPa·s]
298.15 K, x2 = 0.0819 | 2.313
298.15 K, x2 = 0.1257 | 2.139
298.15 K, x2 = 0.1681 | 1.973
298.15 K, x2 = 0.2263 | 1.771
298.15 K, x2 = 0.2749 | 1.61
298.15 K, x2 = 0.3195 | 1.476
298.15 K, x2 = 0.3719 | 1.339
298.15 K, x2 = 0.4121 | 1.246
298.15 K, x2 = 0.473 | 1.117
298.15 K, x2 = 0.5153 | 1.038
298.15 K, x2 = 0.5596 | 0.971
298.15 K, x2 = 0.6051 | 0.9
298.15 K, x2 = 0.6559 | 0.827
298.15 K, x2 = 0.7053 | 0.772
298.15 K, x2 = 0.7427 | 0.729
298.15 K, x2 = 0.794 | 0.674
298.15 K, x2 = 0.8349 | 0.635
298.15 K, x2 = 0.8859 | 0.591
298.15 K, x2 = 0.9357 | 0.552
308.15 K, x2 = 0.0945 | 1.866
308.15 K, x2 = 0.1325 | 1.737
308.15 K, x2 = 0.1853 | 1.579
308.15 K, x2 = 0.2276 | 1.465
308.15 K, x2 = 0.2687 | 1.364
308.15 K, x2 = 0.3288 | 1.233
308.15 K, x2 = 0.3769 | 1.139
308.15 K, x2 = 0.4139 | 1.073
308.15 K, x2 = 0.4741 | 0.975
308.15 K, x2 = 0.5134 | 0.916
308.15 K, x2 = 0.5651 | 0.848
308.15 K, x2 = 0.6054 | 0.797
308.15 K, x2 = 0.6525 | 0.743
308.15 K, x2 = 0.7052 | 0.688
308.15 K, x2 = 0.7478 | 0.649
308.15 K, x2 = 0.7925 | 0.61
308.15 K, x2 = 0.8351 | 0.577
308.15 K, x2 = 0.8734 | 0.549
308.15 K, x2 = 0.9291 | 0.514
318.15 K, x2 = 0.0361 | 1.714
318.15 K, x2 = 0.0929 | 1.554
318.15 K, x2 = 0.1407 | 1.438
318.15 K, x2 = 0.196 | 1.309
318.15 K, x2 = 0.2419 | 1.215
318.15 K, x2 = 0.2984 | 1.108
318.15 K, x2 = 0.346 | 1.027
318.15 K, x2 = 0.4006 | 0.943
318.15 K, x2 = 0.4467 | 0.878
318.15 K, x2 = 0.499 | 0.812
318.15 K, x2 = 0.5446 | 0.759
318.15 K, x2 = 0.5955 | 0.706
318.15 K, x2 = 0.6382 | 0.665
318.15 K, x2 = 0.6905 | 0.619
318.15 K, x2 = 0.7358 | 0.584
318.15 K, x2 = 0.7849 | 0.546
318.15 K, x2 = 0.8274 | 0.518
318.15 K, x2 = 0.8768 | 0.488
318.15 K, x2 = 0.9193 | 0.464

CC(C)(C)O + CCCCCCCCCC
Details | viscosity [mPa·s]
323.15 K, x1 = 0.9499 | 1.155

CCCCOC(=O)c1ccccc1 + CCCCCCCCCC
Details | viscosity [mPa·s]
298.15 K, x2 = 0.0918 | 2.334
298.15 K, x2 = 0.1358 | 2.183
298.15 K, x2 = 0.1792 | 2.041
298.15 K, x2 = 0.2262 | 1.896
298.15 K, x2 = 0.2664 | 1.788
298.15 K, x2 = 0.3097 | 1.678
298.15 K, x2 = 0.3591 | 1.567
298.15 K, x2 = 0.4089 | 1.47
298.15 K, x2 = 0.4486 | 1.401
298.15 K, x2 = 0.4948 | 1.329
298.15 K, x2 = 0.5503 | 1.25
298.15 K, x2 = 0.5873 | 1.204
298.15 K, x2 = 0.6281 | 1.153
298.15 K, x2 = 0.6957 | 1.077
298.15 K, x2 = 0.741 | 1.032
298.15 K, x2 = 0.7899 | 0.988
298.15 K, x2 = 0.8403 | 0.946
298.15 K, x2 = 0.8939 | 0.908
298.15 K, x2 = 0.9566 | 0.87
308.15 K, x2 = 0.0669 | 1.981
308.15 K, x2 = 0.1091 | 1.855
308.15 K, x2 = 0.1542 | 1.738
308.15 K, x2 = 0.1965 | 1.637
308.15 K, x2 = 0.245 | 1.534
308.15 K, x2 = 0.2934 | 1.443
308.15 K, x2 = 0.3293 | 1.381
308.15 K, x2 = 0.3765 | 1.306
308.15 K, x2 = 0.4326 | 1.224
308.15 K, x2 = 0.4647 | 1.182
308.15 K, x2 = 0.5148 | 1.12
308.15 K, x2 = 0.563 | 1.063
308.15 K, x2 = 0.6162 | 1.008
308.15 K, x2 = 0.6547 | 0.972
308.15 K, x2 = 0.7081 | 0.924
308.15 K, x2 = 0.7512 | 0.891
308.15 K, x2 = 0.8136 | 0.846
308.15 K, x2 = 0.8573 | 0.818
308.15 K, x2 = 0.9215 | 0.783
318.15 K, x2 = 0.0724 | 1.636
318.15 K, x2 = 0.0793 | 1.618
318.15 K, x2 = 0.1214 | 1.527
318.15 K, x2 = 0.1698 | 1.43
318.15 K, x2 = 0.2143 | 1.349
318.15 K, x2 = 0.2625 | 1.268
318.15 K, x2 = 0.3071 | 1.201
318.15 K, x2 = 0.3576 | 1.129
318.15 K, x2 = 0.4024 | 1.073
318.15 K, x2 = 0.4543 | 1.013
318.15 K, x2 = 0.4998 | 0.966
318.15 K, x2 = 0.551 | 0.917
318.15 K, x2 = 0.5985 | 0.876
318.15 K, x2 = 0.6498 | 0.834
318.15 K, x2 = 0.6927 | 0.804
318.15 K, x2 = 0.7509 | 0.764
318.15 K, x2 = 0.8026 | 0.733
318.15 K, x2 = 0.901 | 0.682
318.15 K, x2 = 0.9265 | 0.673

CCCCOC(=O)c1ccccc1 + CCCCCCCCCCCC
Details | viscosity [mPa·s]
298.15 K, x2 = 0.0369 | 2.578
298.15 K, x2 = 0.0748 | 2.463
298.15 K, x2 = 0.1143 | 2.347
298.15 K, x2 = 0.1505 | 2.251
298.15 K, x2 = 0.1939 | 2.149
298.15 K, x2 = 0.2329 | 2.064
298.15 K, x2 = 0.2775 | 1.977
298.15 K, x2 = 0.3263 | 1.893
298.15 K, x2 = 0.3672 | 1.834
298.15 K, x2 = 0.4144 | 1.759
298.15 K, x2 = 0.4576 | 1.702
298.15 K, x2 = 0.5085 | 1.649
298.15 K, x2 = 0.5525 | 1.594
298.15 K, x2 = 0.6026 | 1.549
298.15 K, x2 = 0.6499 | 1.506
298.15 K, x2 = 0.7176 | 1.457
298.15 K, x2 = 0.7662 | 1.428
298.15 K, x2 = 0.8184 | 1.399
298.15 K, x2 = 0.8852 | 1.372
308.15 K, x2 = 0.0565 | 2.041
308.15 K, x2 = 0.0869 | 1.968
308.15 K, x2 = 0.1399 | 1.857
308.15 K, x2 = 0.1662 | 1.807
308.15 K, x2 = 0.2145 | 1.722
308.15 K, x2 = 0.2546 | 1.662
308.15 K, x2 = 0.3019 | 1.596
308.15 K, x2 = 0.3408 | 1.548
308.15 K, x2 = 0.3915 | 1.49
308.15 K, x2 = 0.4297 | 1.451
308.15 K, x2 = 0.4845 | 1.4
308.15 K, x2 = 0.5231 | 1.367
308.15 K, x2 = 0.5719 | 1.328
308.15 K, x2 = 0.6276 | 1.287
308.15 K, x2 = 0.68 | 1.256
308.15 K, x2 = 0.7278 | 1.229
308.15 K, x2 = 0.7842 | 1.202
308.15 K, x2 = 0.8501 | 1.176
308.15 K, x2 = 0.9392 | 1.151
318.15 K, x2 = 0.0245 | 1.764
318.15 K, x2 = 0.0618 | 1.688
318.15 K, x2 = 0.101 | 1.612
318.15 K, x2 = 0.1422 | 1.543
318.15 K, x2 = 0.181 | 1.487
318.15 K, x2 = 0.2247 | 1.427
318.15 K, x2 = 0.2652 | 1.376
318.15 K, x2 = 0.3117 | 1.325
318.15 K, x2 = 0.355 | 1.282
318.15 K, x2 = 0.4033 | 1.238
318.15 K, x2 = 0.4479 | 1.202
318.15 K, x2 = 0.5006 | 1.163
318.15 K, x2 = 0.5557 | 1.127
318.15 K, x2 = 0.604 | 1.099
318.15 K, x2 = 0.6185 | 1.091
318.15 K, x2 = 0.7124 | 1.045
318.15 K, x2 = 0.7679 | 1.024
318.15 K, x2 = 0.8278 | 1.006
318.15 K, x2 = 0.9612 | 0.974

CCCCOC(=O)c1ccccc1 + CCCCCCCCCCCCCC
Details | viscosity [mPa·s]
298.15 K, x2 = 0.0346 | 2.623
298.15 K, x2 = 0.0683 | 2.562
298.15 K, x2 = 0.1072 | 2.49
298.15 K, x2 = 0.1432 | 2.436
298.15 K, x2 = 0.1795 | 2.38
298.15 K, x2 = 0.2175 | 2.328
298.15 K, x2 = 0.2506 | 2.282
298.15 K, x2 = 0.2944 | 2.226
298.15 K, x2 = 0.3362 | 2.186
298.15 K, x2 = 0.3761 | 2.154
298.15 K, x2 = 0.4036 | 2.128
298.15 K, x2 = 0.472 | 2.08
298.15 K, x2 = 0.5203 | 2.055
298.15 K, x2 = 0.5754 | 2.03
298.15 K, x2 = 0.6238 | 2.015
298.15 K, x2 = 0.6833 | 1.995
298.15 K, x2 = 0.7394 | 1.989
298.15 K, x2 = 0.8084 | 1.99
298.15 K, x2 = 0.8738 | 2.005
308.15 K, x2 = 0.0474 | 2.117
308.15 K, x2 = 0.0876 | 2.049
308.15 K, x2 = 0.1255 | 1.995
308.15 K, x2 = 0.1576 | 1.956
308.15 K, x2 = 0.1932 | 1.916
308.15 K, x2 = 0.2315 | 1.876
308.15 K, x2 = 0.2692 | 1.842
308.15 K, x2 = 0.3166 | 1.806
308.15 K, x2 = 0.3536 | 1.783
308.15 K, x2 = 0.3967 | 1.758
308.15 K, x2 = 0.4455 | 1.735
308.15 K, x2 = 0.4967 | 1.714
308.15 K, x2 = 0.5574 | 1.696
308.15 K, x2 = 0.5991 | 1.684
308.15 K, x2 = 0.6454 | 1.675
308.15 K, x2 = 0.7094 | 1.667
308.15 K, x2 = 0.7691 | 1.664
308.15 K, x2 = 0.8229 | 1.665
308.15 K, x2 = 0.9132 | 1.68
318.15 K, x2 = 0.0221 | 1.779
318.15 K, x2 = 0.0602 | 1.728
318.15 K, x2 = 0.0938 | 1.687
318.15 K, x2 = 0.1331 | 1.646
318.15 K, x2 = 0.1693 | 1.612
318.15 K, x2 = 0.2101 | 1.576
318.15 K, x2 = 0.249 | 1.546
318.15 K, x2 = 0.2933 | 1.516
318.15 K, x2 = 0.3356 | 1.491
318.15 K, x2 = 0.3836 | 1.467
318.15 K, x2 = 0.4273 | 1.448
318.15 K, x2 = 0.4797 | 1.428
318.15 K, x2 = 0.5267 | 1.413
318.15 K, x2 = 0.5825 | 1.399
318.15 K, x2 = 0.6341 | 1.388
318.15 K, x2 = 0.6948 | 1.38
318.15 K, x2 = 0.7506 | 1.377
318.15 K, x2 = 0.8156 | 1.375
318.15 K, x2 = 0.8778 | 1.381
